Source: PubChem BioAssay (NCI)
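Briefly, cells in 96-well plates were exposed to five compound concentrations for 48 h, and endpoints were estimated by linear interpolation. TGI marks complete inhibition of growth.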

Assays:
Experiment in all cases: NCI-60 cell line screen, 48 h
COLO 205 colon = tested on: COLO 205 colon
OVCAR-4 ovarian = tested on: OVCAR-4 ovarian
NCI-H460 lung = tested on: NCI-H460 lung
PC-3 prostate = tested on: PC-3 prostate
SNB-75 CNS = tested on: SNB-75 CNS
UACC-62 melanoma = tested on: UACC-62 melanoma
U251 CNS = tested on: U251 CNS
HOP-92 NSCLC = tested on: HOP-92 NSCLC
NCI-H23 lung = tested on: NCI-H23 lung
OVCAR-8 ovarian = tested on: OVCAR-8 ovarian
SF-295 CNS = tested on: SF-295 CNS
HS 578T breast = tested on: HS 578T breast
UO-31 renal = tested on: UO-31 renal
RPMI-8226 leukemia = tested on: RPMI-8226 leukemia
SNB-19 CNS = tested on: SNB-19 CNS
RXF 393 renal = tested on: RXF 393 renal
SK-MEL-28 melanoma = tested on: SK-MEL-28 melanoma
HL-60(TB) leukemia = tested on: HL-60(TB) leukemia
EKVX NSCLC = tested on: EKVX NSCLC
MOLT-4 leukemia = tested on: MOLT-4 leukemia

Structure (SMILES) | TGI (COLO 205 colon) | TGI (OVCAR-4 ovarian) | TGI (NCI-H460 lung) | TGI (PC-3 prostate) | TGI (SNB-75 CNS) | TGI (UACC-62 melanoma) | TGI (U251 CNS) | TGI (HOP-92 NSCLC) | TGI (NCI-H23 lung) | TGI (OVCAR-8 ovarian) | TGI (SF-295 CNS) | TGI (HS 578T breast) | TGI (UO-31 renal) | TGI (RPMI-8226 leukemia) | TGI (SNB-19 CNS) | TGI (RXF 393 renal) | TGI (SK-MEL-28 melanoma) | TGI (HL-60(TB) leukemia) | TGI (EKVX NSCLC) | TGI (MOLT-4 leukemia)
C[C@]12CC[C@@H]3c4ccc(O)cc4CC[C@H]3[C@@H]1C/C(=C\c1ccncc1)C2=O | > 100 µM | > 100 µM | > 100 µM | > 100 µM | > 100 µM | 50.9 µM | > 100 µM | > 100 µM | > 100 µM | 56.3 µM | > 100 µM | 62.7 µM | > 100 µM | > 100 µM | > 100 µM | > 100 µM | > 100 µM | 68 µM | > 100 µM | > 100 µM
COC(=O)C1C(C(=O)OC)N(Cc2ccccc2)C(=O)N1Cc1ccccc1 (stereo not given) | > 100 µM | > 100 µM | > 100 µM | > 100 µM | > 100 µM | > 100 µM | > 100 µM | > 100 µM | > 100 µM | > 100 µM | > 100 µM | > 100 µM | > 100 µM | > 100 µM | > 100 µM | > 100 µM | > 100 µM | > 100 µM | > 100 µM | > 100 µM
CCN1c2ccccc2-n2c(C)nnc2-c2c1n[nH]c2-c1ccccc1 | > 100 µM | > 100 µM | > 100 µM | 96.5 µM | > 100 µM | 98.9 µM | 46.8 µM | > 100 µM | > 100 µM | > 100 µM | > 100 µM | > 100 µM | > 100 µM | 82.3 µM | > 100 µM | > 100 µM | > 100 µM | 28.5 µM | > 100 µM | 50.7 µM
